From the RepoRT retention time repository

Experiment: RP, Waters ACQUITY UPLC BEH C18, 50 × 2.1 mm, 1.7 µm, 40 °C, 0.6 mL/min, estimated dead time 0.18 min; A: water + 0.1% formic acid, pH 3; B: acetonitrile + 0.1% formic acid, pH 3; gradient (min/%B) 0/5 7/100 8/100
Conditions: stereoisomer not certain

Compound | LC retention time [min]
CC(=O)OC(C)(C)C=CC(=O)C(C)(O)C1C(O)CC2(C)C3CC=C4C(=COC(=O)C4(C)C)C3(C)C(=O)CC12C (stereo not drawn) | 3.14
CCC1C2CCCCN3CCC(C4C(C)C(=O)OC14)C23 (stereo not drawn) | 1.34
COc1ccc2c(c1)CC1c3c(cc4c(c3-2)OCO4)CCN1C (stereo not drawn) | 2.15
CC1CC2CC3CCCC(=O)N3C3CCC(O)C(C1)N23 (stereo not drawn) | 0.92
CCC(C)C(=O)C1=C(O)C2(CC=C(C)C)CC(CCC(C)(C)O)C(C)(C)C(C(CC(=O)O)c3ccccc3)=C2OC1=O (stereo not drawn) | 5
COc1c(O)c(OC)c(C(=O)C2CC=C(CCC=C(C)C)CC2c2ccccc2)c(O)c1OC (stereo not drawn) | 5.76
CN1CCc2ccc(O)c3c2C1Cc1cc2c(cc1O3)OCO2 (stereo not drawn) | 1.4
O=C1CC(c2ccc(O)cc2)Oc2c1c(O)cc(O)c2C1C(=O)c2c(O)cc(O)cc2OC1c1ccc(O)cc1 (stereo not drawn) | 2.36
CC(=O)OCC1=C2C(OC(=O)/C=C(/C)COC(C)=O)CC(C)C(=O)CC(=O)C3(C)OC3C2OC1=O (stereo not drawn) | 3.5
C=CCc1ccc(O)c(-c2ccc(O)c(CC=C)c2)c1 [3',5-bis(prop-2-en-1-yl)-[1,1'-biphenyl]-2,4'-diol] | 3.18
COc1cc(O)ccc1CCC(c1ccc(O)cc1)c1cc(CCC(=O)c2ccc(O)cc2)c(O)cc1O (stereo not drawn) | 2.1
COc1cc2c(cc1OC)-c1c(OC)c(OC)cc3c1C(C2)N(C)CC3 (stereo not drawn) | 1.87
COc1cc(/C=C/C(=O)OC2CC3(C)CCC2C3(C)C)ccc1O (stereo not drawn) | 4.97
CCCCCCCCCCC[C@@H]1CCC[C@@H](C)N1 [(2R,6R)-2-methyl-6-undecylpiperidine] | 4.03
COC1C2(O)COC3=CC(=O)C=CC31c1cc(O)c(O)cc1C2 (stereo not drawn) | 1.08
COc1cc(CCN(C)C)c2ccc3cc4c(c5c3c2c1OC5)OCO4 | 2.24
CC[C@@]12CC(C(=O)OC)=C3Nc4ccccc4[C@@]34CCN(C[C@H]3O[C@H]31)C24 (stereo partly drawn) | 1.96
COc1cc(/C=C/c2ccc(OCC=C(C)C)cc2)cc(OC)c1 | 5.37
COc1ccc2c3c1OC1C(O)C=CC4C(C2)N(C)CCC341 (stereo not drawn) | 0.85
CC(=O)O[C@@H](C[C@@H](C)C1=C2CC(O)C3[C@@]4(C)CCC(=O)C(C)(C)C4CC[C@]3(C)[C@@]2(C)CC1)[C@H]1OC1(C)C (stereo partly drawn) | 5.4
C=C1[C@@H](O)C[C@H]2C(C)(C)CCC[C@]2(C)[C@H]1CC1C(C)=CCC2C(=O)C(OC)=CC(=O)C21c1cc(=O)c2c(O)cc(O)cc2o1 (stereo partly drawn) | 2.12
COc1ccc(C2Oc3c(c(O)cc(O)c3C3C(=O)c4c(O)cc(O)cc4OC3c3ccc(O)cc3)C(=O)C2O)cc1O (stereo not drawn) | 1.69
CC(C)=CCc1c2c(c(O)c3c1OC14C(=CC5CC1C(C)(C)OC4(CC=C(C)C(=O)O)C5=O)C3=O)C=CC(C)(C)O2 (stereo not drawn) | 5.38
C[C@@H]1CC2(NCCS2)[C@]2(O)OC3C[C@@]4(C=O)C(CCC5C4CC[C@]4(C)C(C6=CC(=O)OC6)CC[C@]54O)CC3OC2O1 (stereo partly drawn) | 0.611
CC1CC(C2CCC3N2CCCCC32CC(C)C(=O)O2)OC1=O (stereo not drawn) | 1.07

Compound | LC retention time [min]
COc1cc2c3cc1Oc1c(cccc1OC)CC1c4c(cc(OC)c(OC)c4Oc4cccc(c4)CC3N(C)CC2)CCN1C (stereo not drawn) | 1.7
CC1CC(O)C2(C)C(CCC(O)C2(C)O)C1(C)CC(=O)c1ccoc1 (stereo not drawn) | 2.35
CC1=CC2CC(C)C(CO)/C=C(\C)C(O)C(=O)/C=C(\C)CCC12 (stereo not drawn) | 4.1
C/C(=C\CC/C=C(\C)CC/C=C(\C)CCC(O)C(C)(O)CO)CC/C=C(\C)CCC(O)C(C)(C)O (stereo not drawn) | 4.79
CC[C@@H]1C(=O)N2CCc3c([nH]c4ccccc34)[C@H]2CC1/C(=C\OC)C(=O)OC (stereo partly drawn) | 2.38
C=C(CO)C(=O)OC1CC(=C)C2CC(=O)C(C)C2C2OC(=O)C(=C)C12 (stereo not drawn) | 3.08
CC[C@H]1C[C@H]2CN3CCc4c([nH]c5ccc(OC)cc45)[C@](C(=O)OC)(C2)C13 | 2.02
C=C1[C@@H](O)C[C@@H]2[C@](C)(CCC[C@@]2(C)C(=O)O)[C@H]1CC1C(C)=CCC2C(=O)C(OC)=CC(=O)C21c1cc(=O)c2c(O)cc(O)cc2o1 (stereo partly drawn) | 2.95
COC(=O)C1=C2CCC3=C2C2(C1)C1(C)CCC4C(C)CN(CC1CC3)C42O (stereo not drawn) | 2.17
C/C=C/C(CC1C(=O)C=CC1(O)CCCCCCCC(=O)O)OC(C)=O (stereo not drawn) | 2.88
CCCC(CC(=O)O)C1=C2OC(=O)C(C(=O)C(C)CC)=C(O)C2(CC=C(C)C)CC(CC=C(C)C)C1(C)C (stereo not drawn) | 6.55
CCC(C)C(=O)C1=C(O)C2(CC=C(C)C)CC(CCC(C)(C)OC(=O)C(F)(F)F)C(C)(C)C(C(CC(=O)O)c3ccccc3)=C2OC1=O (stereo not drawn) | 6.11
C[C@@H]1O[C@@H](O[C@@H]2C(O[C@H]3CC[C@@]4(C)C(CC[C@]5(C)C4CC=C4C6CC(C)(C)CC[C@]6(C(=O)O)CC[C@]45C)[C@]3(C)CO)OC[C@@H](OC3O[C@H](CO)[C@@H](O)[C@H](O)[C@H]3O)[C@H]2O)[C@H](O)[C@H](O[C@@H]2OC[C@@H](O)[C@H](O)[C@H]2O)[C@H]1O (stereo partly drawn) | 2.21
CC(C)=CCc1c(O)cc2oc(-c3ccc(O)cc3)c(O)c(=O)c2c1O | 3.98
CCCCCCCCCCCCCCC(O)C(O)CCC(O)C1CCC(CCCCCC(O)CC2=CC(C)OC2=O)O1 (stereo not drawn) | 6.01
CC(C)(O)/C=C/C(=O)[C@](C)(O)[C@H]1[C@H](O)C[C@@]2(C)C3CC=C4C(CC(=O)C(O)C4(C)C)[C@]3(C)C(=O)C[C@]12C (stereo partly drawn) | 2.9
COc1ccc(Cc2nccc3cc(OC)c(OC)cc23)cc1OC [1-[(3,4-dimethoxyphenyl)methyl]-6,7-dimethoxyisoquinoline] | 1.79
CC(C)C1CCC2(C)C3CCC45CCCC4C2(CCC(=O)C2(C)COC4(C)CCC2O4)C1N5C3 (stereo not drawn) | 2.86
CC1=C(O)C(=O)C=C2C1=CC=C1[C@@]2(C)CC[C@@]2(C)[C@@H]3C[C@](C)(C(=O)O)CC[C@]3(C)CC[C@]12C | 5.33
CC/C=C/CC(O)C(O)/C=C/C(O)CCCCCCCC(=O)O (stereo not drawn) [(10E,15E)-9,12,13-trihydroxyoctadeca-10,15-dienoic acid] | 2.6
COc1ccc(C(=O)[C@@H](c2coc3cc(O)ccc3c2=O)C(c2ccc(O)cc2)c2ccc(O)cc2)c(O)c1 | 3.14
COc1cc2c3c(c1O)Oc1ccc(cc1)CC1c4c(cc(OC)c(O)c4Oc4ccc(cc4)CC3N(C)CC2)CCN1C (stereo not drawn) | 1.44
COc1cc2c(cc1OC)Oc1c(O)ccc3c1C(C2)N(C)CC3 (stereo not drawn) | 1.37
C/C(=C/CC[C@H](C)[C@@H]1CC[C@]2(C)C3=CCC4C(C)(C)C(=O)CC[C@]4(C)C3CC[C@@]12C)C(=O)O (stereo partly drawn) | 6.25

The next lines start with the values.

LC retention time [min] | Compound
3.48 | C=C(C(=O)C(OC(C)=O)C(C)C1C(OC(C)=O)CC2(C)C3C4OC4C4C(C)C(=O)C=CC45CC35CCC12C)C(C)CO (stereo not drawn)
3.41 | C=C(C(=O)C(O)C(C)C1C(OC(C)=O)CC2(C)C3CC(O)C4C(C)C(=O)C=CC45CC35CCC12C)C(C)CO (stereo not drawn)
1.71 | CCC1CN(C)CC2Cc3c([nH]c4ccccc34)C(=O)CC12 (stereo not drawn)
2.62 | COc1ccc(-c2oc3cc(OC)c(OC)c(O)c3c(=O)c2OC)cc1O
2.27 | COc1ccc2c3c(c4cc(OC)c(OC)cc4c2c1)CC1CCCN1C3 (stereo not drawn)
4.07 | C=C1COC(=O)C12C[C@@]1(C)C([C@@H](OC(=O)/C=C/SC)CC[C@@H]1C)[C@H]2OC(C)=O (stereo partly drawn)
6.32 | CCCCCCCCCCCCO[C@@H]1O[C@@H](C)[C@H](OC(C)=O)[C@@H](O[C@@H]2O[C@@H](C)[C@H](OC(C)=O)[C@@H](O[C@@H]3O[C@@H](C)[C@H](OC(C)=O)[C@@H](O)[C@H]3O)[C@H]2OC(C)=O)[C@H]1O
4.16 | C=C1COC(=O)C12C[C@@]1(C)C([C@@H](OC(=O)/C(C)=C\C)CC[C@@H]1C)[C@H]2OC(C)=O (stereo partly drawn)
2.66 | COc1cc(-c2oc3cc(OC)c(OC)c(O)c3c(=O)c2OC)ccc1O
1.87 | COc1cc2ccc(=O)oc2cc1OC [6,7-dimethoxy-2H-chromen-2-one]
3.06 | CC(=O)OC(C)(C)CCC(=O)[C@](C)(O)C1[C@H](O)C[C@@]2(C)C3CC=C4C(C[C@H](O)[C@@H](O)C4(C)C)[C@]3(C)C(=O)C[C@]12C (stereo partly drawn)
6.96 | CCCCCCCCCCCCCCCC(=O)OC12CC(C)C3(O)C(C4OC4(CO)C(O)C4(O)C(=O)C(C)=CC43)C1C2(C)C (stereo not drawn)
4 | CC1(C(=O)O)CCCC2(C)C3CCC4CC3(C=C4C=O)CCC12 (stereo not drawn)
6.55 | CCCCCCCCCCCCCC(=O)OC12CC(C)C3(O)C(C4OC4(CO)C(O)C4(O)C(=O)C(C)=CC43)C1C2(C)C (stereo not drawn)
2.1 | COc1c(-c2c(C)cc(OC)c3c(OC)cccc23)c(O)cc2c1C(C)NC(C)C2 (stereo not drawn)
1.8 | Cn1c(Cc2ccccc2)nc(=O)c2ccccc21 [2-benzyl-1-methyl-1,4-dihydroquinazolin-4-one]
1.05 | COc1cc2c(cc1O)C(Cc1ccc(O)cc1)NCC2 (stereo not drawn)
1.32 | CC[C@H]1NC2C[C@@]3(C(=O)N(OC)c4cc(OC)ccc43)C3OCC2C1[C@@H]3O (stereo partly drawn)
3.4 | CC1(C)CCC[C@]2(CO)C1CC[C@@]13C[C@@H](CCC12)[C@@](O)(COC(=O)/C=C/c1ccc(O)c(O)c1)C3 (stereo partly drawn)
1.41 | CC(CC[C@@H](C)[C@H]1CCC2C3C[C@H](OS(=O)(=O)O)[C@H]4C[C@H](OS(=O)(=O)O)C(OS(=O)(=O)O)C[C@]4(C)C3CC[C@@]21C)C(C)(C)C (stereo partly drawn)
0.738 | COc1c(O)cc2c3c1C1(C=CC(=O)C=C1)CC3N(C)CC2 (stereo not drawn)
2.97 | C=C(C)C(CCC(C)(C)O)Cc1c(O)cc(O)c2c1OC(c1ccc(O)cc1O)CC2=O (stereo not drawn)
3.02 | C=C1[C@@H](O)C[C@H]2[C@](C)(CO)CCC[C@]2(C)[C@H]1CC1C(C)=CCC2C(=O)C(OC)=CC(=O)C21c1cc(=O)c2c(O)cc(O)cc2o1 (stereo partly drawn)
6.51 | CCCC(CC(=O)O)C1=C2OC(=O)C(C(=O)CC(C)C)=C(O)C2(CC=C(C)C)CC(CC=C(C)C)C1(C)C (stereo not drawn)
